Measured values taken from paper PMC7792611, “The Delta-Specific Opioid Glycopeptide BBI-11008: CNS Penetration and Behavioral Analysis in a Preclinical Model of Levodopa-Induced Dyskinesia” (International Journal of Molecular Sciences, 2020).
“And” between values parts separate entries of the source, which are not always exact repeats. Identical values can stand only once. “Also recorded” adds a separate entry of the source. Like-named read-outs stand apart in the source and are kept apart here. Non-standard residues stand in square brackets, D forms with d. Residues, ends and D or L forms follow the SMILES beside them. *: point of attachment. βGlc = OC[C@H]1O[C@@H](*)[C@H](O)[C@@H](O)[C@@H]1O; Nle = CCCC[C@H](N)C(=O)O

How the values were obtained:
[1] = In vivo microdialysis in the dorsolateral striatum with LC-MS; details: 10 mg/kg i.p., rat
Protocol: Adult male Sprague–Dawley rats (Harlan, Indianapolis, IN, USA) weighing between 250 and 350 g were used for all experiments (n = 6). Rats were housed in a temperature and humidity-controlled room with 12 h light/dark cycles with food and water available ad libitum. All animals were treated as approved by the University of Michigan Unit for Laboratory Animal Medicine (Protocol: 08516; approval date: 4 April 2011) and in accordance with the National Institute of Health (NIH) Guidelines for the Care and Use of Laboratory Animals. The number of animals used, and their suffering were minimized.
We performed in vivo microdialysis in the rat DLS and applied LC-MS analytical techniques to quantify brain concentrations of the deltorphin analogue BBI-11008, following systemic treatment, and of endogenous leu-enkephalin levels both before and after treatment. These experiments were performed in awake, freely moving rats, implanted with microdialysis probes in the DLS 24 h prior to the experiments. The animals were fully recovered, their wounds healed, and the probes were fixed in place with dental cement. The details of the microdialysis procedure to detect glycopeptides in the rat striatum has been described in detail in [27], with the following minor modifications: the concentric microdialysis probes were slightly larger at 3 mm, and the microdialysis probes were flushed at a lower flow rate of 0.7 µL/min.

human MOR = target: T1, human MOR (Homo sapiens, UniProt P35372); test: Opioid receptor binding, inhibition of [3H]DAMGO binding to CHO cell membranes; details: for % Inhibition at MOR: 0.25 nM [3H]DAMGO
T1 construct: expressed in transfected cells

human DOR = target: T2, human DOR (Homo sapiens, UniProt P41143); test: Opioid receptor binding, inhibition of [3H]naltrindole binding to CHO cell membranes; details: for % Inhibition at DOR: 0.2 nM [3H]naltrindole
T2 construct: expressed in transfected cells

human KOR = target: T3, human KOR (Homo sapiens, UniProt P41145); test: Opioid receptor binding, [3H]U69593 binding to CHO cell membranes; details: 1 nM [3H]U69593; cells print % values
T3 construct: expressed in transfected cells
Protocol: Opioid Receptor Binding: Opioid receptor binding assays were performed as previously described. Membranes from CHO cells stably expressing either the human DOR, MOR, or KOR were used in the binding experiments. […] [^3H]U69593 at a concentration of 1 nM was used to measure binding to the KOR. […] BBI-11008 was chosen for further study.

[2] = tested on: L-DOPA-induced dyskinesia (LID) models; details: cited from earlier work
[3] = tested on: L-DOPA-induced abnormal involuntary movements in 6-OHDA-lesioned rats; test: L-DOPA-induced dyskinesia model in unilateral 6-OHDA-lesioned rats, AIMs scoring; format: in vivo, rat; details: MK-801 0.3 mg/kg i.p., 25 min prior to L-DOPA
Protocol: Male Sprague-Dawley rats (250 g; Harlan, Indianapolis, IN, USA), were housed in a temperature and humidity-controlled room with 12 h light/dark cycles with food and water available ad libitum. All animals were treated as approved by the Institutional Animal Care and Use Committee at the University of Arizona (Protocol number: 10-204; amendment approval date: 20 August 2012) and in accordance with the NIH Guidelines for the Care and Use of Laboratory Animals. The number of animals used, and their suffering were minimized.
All surgical procedures were performed as published in our prior work unless otherwise stated. […]
Rats showing ipsiversive rotations were selected and treated daily (i.p.) for 3 weeks with a combination of L-DOPA (7 mg/kg) and benserazide (14 mg/kg, MilliporeSigma). […] Baseline L-DOPA-induced LAO and locomotor AIMs (mean ± SEM) were determined over 3 testing sessions, before testing of the compounds was begun. […]
L-DOPA-induced AIMs were scored by an experimentally blinded investigator according to [57]. […] In order to quantify the severity of the AIMs, rats were observed individually in their standard cages every 20th min between 20 and 180 min after an injection of L-DOPA. […]

tail-withdrawal assay = details: mice, intravenous administration; ref Bilsky and Polt, personal communication; cited from earlier work

T2 sequence (P41143 whole entry): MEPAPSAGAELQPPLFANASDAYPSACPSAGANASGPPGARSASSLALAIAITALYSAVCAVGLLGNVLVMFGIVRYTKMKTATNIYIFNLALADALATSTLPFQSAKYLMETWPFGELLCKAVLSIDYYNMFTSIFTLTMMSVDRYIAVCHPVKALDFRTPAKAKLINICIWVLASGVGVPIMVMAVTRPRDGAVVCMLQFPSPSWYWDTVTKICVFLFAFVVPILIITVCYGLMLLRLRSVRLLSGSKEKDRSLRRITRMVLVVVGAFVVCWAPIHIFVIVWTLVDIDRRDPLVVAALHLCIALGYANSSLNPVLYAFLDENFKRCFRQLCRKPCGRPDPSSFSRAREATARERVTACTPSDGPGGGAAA
T1 sequence (P35372 whole entry): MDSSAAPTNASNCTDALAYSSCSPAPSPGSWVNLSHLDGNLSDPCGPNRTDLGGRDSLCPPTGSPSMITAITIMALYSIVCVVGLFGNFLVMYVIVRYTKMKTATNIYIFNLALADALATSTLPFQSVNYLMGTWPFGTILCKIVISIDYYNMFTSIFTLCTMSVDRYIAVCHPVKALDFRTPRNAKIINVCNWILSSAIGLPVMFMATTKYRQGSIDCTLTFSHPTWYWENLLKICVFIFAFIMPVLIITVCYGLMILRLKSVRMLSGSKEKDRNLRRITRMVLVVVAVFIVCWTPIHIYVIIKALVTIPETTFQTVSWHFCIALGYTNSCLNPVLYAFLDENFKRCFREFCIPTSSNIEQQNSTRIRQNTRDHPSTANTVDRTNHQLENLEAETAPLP
T3 sequence (P41145 whole entry): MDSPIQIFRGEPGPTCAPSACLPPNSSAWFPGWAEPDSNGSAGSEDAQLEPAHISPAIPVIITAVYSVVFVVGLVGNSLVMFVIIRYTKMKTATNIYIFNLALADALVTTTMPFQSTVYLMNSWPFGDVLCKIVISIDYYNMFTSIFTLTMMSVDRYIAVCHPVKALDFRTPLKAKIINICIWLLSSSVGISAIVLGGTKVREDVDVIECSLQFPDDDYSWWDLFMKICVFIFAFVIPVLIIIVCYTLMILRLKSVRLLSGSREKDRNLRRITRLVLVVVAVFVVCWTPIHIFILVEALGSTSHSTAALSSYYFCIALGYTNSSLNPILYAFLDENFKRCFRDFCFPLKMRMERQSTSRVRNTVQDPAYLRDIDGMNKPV

For `CCCC[C@H](NC(=O)[C@H](CCC(=O)O)NC(=O)[C@H](Cc1ccccc1)NC(=O)[C@@H](C)NC(=O)[C@@H](N)Cc1ccc(O)cc1)C(=O)N[C@@H](CCCC)C(=O)N[C@H](C(N)=O)[C@@H](C)O[C@@H]1O[C@H](CO)[C@@H](O)[C@H](O)[C@H]1O` [BBI-11008, H2N-YaFE-Nle-Nle-T-(β-D-Glc)] (H-Y[dA]FE[Nle][Nle]T(βGlc)-NH2), the “peak BBI-11008 level relative to baseline endogenous leu-enkephalin” value [1] was 10 fold, the “peak BBI-11008 concentration in dorsolateral striatum dialysate” value ([1]; 10 min post-injection) was 150 pM and > 150 pM and the level at time molar at 1 h ([1]; male, Sprague-Dawley, in vivo, ip, 10 mg/kg, 60 min, read-out: striatal BBI-11008 concentration at 60 min post-injection (mean)) was about 0.037 nM.
With `CCCC[C@H](NC(=O)[C@H](CCC(=O)O)NC(=O)[C@H](Cc1ccccc1)NC(=O)[C@@H](C)NC(=O)[C@@H](N)Cc1ccc(O)cc1)C(=O)N[C@@H](CCCC)C(=O)N[C@H](C(N)=O)[C@@H](C)O` [BBI-11009, H2N-YaFE-Nle-Nle-T] (H-Y[dA]FE[Nle][Nle]T-NH2) the Ki (human MOR) was 510 nM, the Ki (human DOR) was 11 nM and the “% Inhibition at KOR” value (human KOR) was 3.7%.
In the case of `CCN(CC)C(=O)c1ccc([C@H](c2cccc(O)c2)N2C[C@@H](C)N(Cc3cccc(F)c3)C[C@@H]2C)cc1` [DPI-289], the “effect on LID” value ([2]; rodent and non-human primate LID models) is given as “anti-dyskinetic”.
With `C[C@]12N[C@H](Cc3ccccc31)c1ccccc12` [MK-801, Dizocilpine] the “effect on L-DOPA-induced LAO AIMs” value [3] was “reduced levodopa-induced LAO AIMs; also recorded: does reduce LAO-AIMs; also recorded: efficiently blocked LAO AIMs” and the “ipsiversive pro-Parkinsonian locomotor activity” value [3] was “worsened PD symptoms; also recorded: induces ipsiversive pro-Parkinsonian locomotor activity; also recorded: caused ipsiversive turns”.
For `CNC1(c2ccccc2Cl)CCCCC1=O` (stereo not drawn) [ketamine], the “effect on LID and Parkinsonism” value ([2]; sub-anesthetic treatment, rodent models) is given as “anti-dyskinetic and anti-Parkinsonian”.
For `Oc1ccc2c3c1O[C@H]1[C@@H](O)CC[C@@]4(O)[C@@H](C2)N(CC2CCC2)CC[C@]314` [nalbuphine], the “effect on LID” value ([2]; dyskinetic non-human LID primates) is given as “reduce LID”.
In the case of CTAP, the “effect on LID” value ([2]; highly-selective MOR antagonists) is listed as “did not reduce LID”.
In the case of H2N-YaFHLA-S(β-D-Glc) [BBI-11002], the “% Inhibition at MOR” value (human MOR; peptide 100 nM) is reported as 82%, the “% Inhibition at MOR” value (human MOR; peptide 1 µM) is reported as 97% and the “% Inhibition at DOR” value (human DOR; peptide 100 nM) is reported as 55%. For the same compound, the “% Inhibition at DOR” value (human DOR; peptide 1 µM) was 77%.
With H2N-YaFHLAT-(β-D-Glc) [BBI-11004] the “% Inhibition at MOR” value (human MOR; peptide 100 nM) was 88%, the “% Inhibition at MOR” value (human MOR; peptide 1 µM) was 98% and the “% Inhibition at DOR” value (human DOR; peptide 100 nM) was 61%. For the same compound, the “% Inhibition at DOR” value (human DOR; peptide 1 µM) was 76%.
With H2N-YmFHLM-S(β-D-Glc) [BBI-11001] the “% Inhibition at MOR” value (human MOR; peptide 100 nM) was 63%, the “% Inhibition at MOR” value (human MOR; peptide 1 µM) was 89% and the “% Inhibition at DOR” value (human DOR; peptide 100 nM) was 72%. The “% Inhibition at DOR” value (human DOR; peptide 1 µM) was 84%.
In the case of H2N-YmFHLMT-(β-D-Glc) [BBI-11003], the “% Inhibition at MOR” value (human MOR; peptide 100 nM) is reported as 57%, the “% Inhibition at MOR” value (human MOR; peptide 1 µM) is reported as 89% and the “% Inhibition at DOR” value (human DOR; peptide 100 nM) is reported as 75%. The “% Inhibition at DOR” value (human DOR; peptide 1 µM) was 83%.
In the case of Lactomorphin [MMP-2200], the “effect on MK-801-induced pro-Parkinsonian activity” value ([2]; co-administration with MK-801, rodent LID model) is given as “attenuated the pro-Parkinsonian activity of MK-801”.
In the case of YaFEVVG-CONH2 [deltorphin], the “antinociceptive effect in the tail-withdrawal assay” value (tail-withdrawal assay) is listed as “lacks this activity”.
